Results reported in PMC9959553, “Promising Antifungal Molecules against Mucormycosis Agents Identified from Pandemic Response Box®: In Vitro and In Silico Analyses” (Journal of Fungi, 2023).

Test system: R. oryzae UCP1295
Test: Screening of the Pandemic Response Box library at 5 µM
Assay type: cell-based, Rhizopus oryzae
Settings: 48 h, Table S1, mean of the four values
Description: Rhizopus oryzae UCP is the most prevalent Mucorales species in human infections and was used as a reference strain to screen the Pandemic Response Box® library. Screening was performed according to Rollin-Pinheiro and colleagues. Each compound was diluted in RPMI 1640 medium (Sigma Chemical Co., St. Louis, MO, USA), supplemented with 2% glucose and buffered with 3-(N-morpholino) propanesulfonic acid (MOPS) (Sigma Chemical Co., St. Louis, MO, USA) (0.165 mol/L, pH 7.2, from here on referred to as ‘supplemented RPMI’) to reach 5 μM in 96-well microtiter plates. Posaconazole (5 μM) and supplemented RPMI containing 1% DMSO were used as controls (both from Sigma Chemical Co., St. Louis, MO, USA). Conidia (2 × 10^5/mL) were added and incubated for 48 h at 37 °C in a 5% CO2 atmosphere. […] An inhibition of at least 60% was defined as the cut-off to select the promising drugs with antifungal activity against the Rhizopus species.

In order of falling “% of growth inhibition, Mean” value:
1. CCOC(=O)N[C@@H]1CC[C@@H]2[C@@H](C1)C[C@H]1C(=O)O[C@H](C)[C@H]1[C@H]2/C=C/c1ccc(-c2cccc(F)c2)cn1 [MMV1593515]  26.6%
2. COc1ccc(-n2cnc3cc(NCc4ccco4)ccc32)cc1 [MMV617332]  22.8%
3. C[C@@]1(O)[C@H](O)[C@@H](CO)O[C@H]1n1ccc2c(N)ncnc21 [MMV1593519]  10.3%
4. CC(=O)Oc1ccccc1C(=O)Nc1ncc([N+](=O)[O-])s1 [MMV688991]  5.4%
5. Nc1nc(O)c(Br)c(-c2cccc(Cl)c2)n1 [MMV1645152]  4.7%
6. O=C(NCc1ccc(F)cc1)c1c(O)c2ncccc2[nH]c1=O [MMV1782097]  3.9%
7. CC(N)C12CC3CC(CC(C3)C1)C2 (stereo not drawn) [MMV637855]  3.7%
8. C[C@H](NC(=O)C(=O)Nc1ccccc1C(C)(C)C)C(=O)N[C@@H](CC(=O)O)C(=O)COc1c(F)c(F)cc(F)c1F [MMV1580794]  1.8%
9. Cc1c(F)cccc1NC(=O)Nc1ccc(Cl)c(S(=O)(=O)[C@H]2CCCNC2)c1O [MMV1581034]  -0.9%
10. O=c1cc(NCCCN[C@@H]2CCOc3c(Br)cc(Br)cc32)[nH]c2ccsc12 [MMV1578884]  -1.3%
11. O=[N+]([O-])c1ccc2c(CCc3c[nH]c4ccccc34)c[nH]c2c1 [MMV1593539]  -2.0%
12. O=c1[nH]cnc2c1ncn2[C@H]1CC[C@@H](CO)O1 [MMV637306]  -2.1%
13. Cc1cccc(CC(=O)N[C@H]2CCOC2=O)c1 [MMV1579782]  -2.1%
14. COC1CC2CCC(C)C(O)(O2)C(=O)C(=O)N2CCCCC2C(=O)OC(C(C)CC2CCC(OCCO)C(OC)C2)CC(=O)C(C)/C=C(\C)C(O)C(OC)C(=O)C(C)CC(C)/C=C/C=C/C=C/1C (stereo not drawn) [MMV639951]  -2.4%
15. Nc1c(C(=O)NCc2ccco2)c2nc3ccccc3nc2n1CCN1CCCCC1 [MMV099714]  -2.7%
16. O=C(O)CSc1cc(NS(=O)(=O)c2cccc3cccnc23)c2ccccc2c1O [MMV218827]  -3.2%
17. Cl.N=C(N)c1ccc(COc2ccc(Cl)cc2)cc1 [MMV1579844]  -3.3%
18. CCOCc1nc2c(N)nc3ccccc3c2n1CC(C)(C)O [MMV690547]  -3.7%
19. O=C(NCc1ccccc1Cl)c1cnc2ccccc2n1 [MMV1230557]  -3.7%
20. CN(O)C(=O)c1cc2c(CN3CCC[C@H]3C(N)=O)cn(Cc3ccc(F)cc3)c2cn1 [MMV1782386]  -4.5%
21. CC(C)N(c1cc(-c2ccccc2)sc1C(=O)O)C(=O)[C@H]1CC[C@H](C)CC1 [MMV1634388]  -4.7%
22. NC(N)=NCCCCC(=O)Nc1cc(C(F)(F)F)cc(NC(=O)c2cc(C(=O)Nc3cc(C(F)(F)F)cc(NC(=O)CCCCN=C(N)N)c3O[C@@H]3CCNC3)ncn2)c1O[C@@H]1CCNC1 [MMV1634402]  -4.8%
23. NC(=O)c1nccn([C@@H]2O[C@H](CO)[C@@H](O)[C@H]2O)c1=O [MMV1782104]  -4.9%
24. CCN(CC)S(=O)(=O)c1ccc(Cl)c(C(=O)Nc2sc3c(c2C#N)CCCC3)c1 [MMV1634384]  -5.0%
25. COc1ccc(C(C)(C)C)cc1NC(=O)C(=O)c1ccc(OCCN2CCOCC2)c2ccccc12 [MMV1782209]  -5.8%
26. O=P(O)(O)C(CCCc1cccc(Oc2ccccc2)c1)S(=O)(=O)O (stereo not drawn) [MMV1782215]  -6.1%
27. Nc1ccc(-c2nc3cc(C(F)(F)F)ccc3n2C23CC4CC(CC(C4)C2)C3)cc1 [MMV1634385]  -6.2%
28. O=C(O)CCNC(=O)c1ccccc1 [MMV002224]  -6.2%
29. Nc1cccc(-c2nc(N)nc(NC3Cc4ccccc4C3)n2)c1 [MMV1581555]  -6.9%
30. O=c1cc(OCc2ccccc2)ccn1Cc1ccccc1 [MMV1579775]  -7.1%
31. COc1ccccc1NC(=O)c1ccccc1Sc1ccc([N+](=O)[O-])cc1 [MMV1580484]  -7.7%
32. N#Cc1cc([N+](=O)[O-])ccc1Oc1ccccc1Cl [MMV1580800]  -8.1%
33. CC(C)(C)NC(=O)N[C@H](C(=O)N1C[C@H]2[C@@H]([C@H]1C(=O)NC(CC1CCC1)C(=O)C(N)=O)C2(C)C)C(C)(C)C (stereo partly drawn) [MMV1580497]  -8.5%
34. Cc1nc2ccc(Cl)cc2c(-c2ccccc2)c1CC(=O)O [MMV1580801]  -8.7%
35. O=C1C=C(c2ccccc2)S(=O)(=O)c2ccccc21 [MMV1006203]  -8.8%
36. N[C@H]1CCC[C@H]1C(=O)O [MMV1634361]  -8.8%
37. O=C(Nc1ccc(N2CCN(C(=O)c3ccccc3)CC2)cc1)c1ccc2c(c1)OCO2 [MMV1580505]  -9.9%
38. c1ccc(-c2nnc3c4ccccc4c(N4CCNCC4)nn23)cc1 [MMV1581551]  -11.4%
39. CC[C@H]1OC(=O)[C@H](C)[C@@H](O[C@H]2C[C@@](C)(OC)[C@@H](O)[C@H](C)O2)[C@H](C)[C@@H](O[C@@H]2O[C@H](C)C[C@H](N(C)C)[C@H]2O)[C@](C)(O)C[C@@H](C)C(=O)[C@H](C)[C@@H](O)[C@]1(C)O [MMV003137]  -11.8%
40. Cc1cc(C2CCCCC2)n(O)c(=O)c1 [MMV002731]  -13.0%
41. CC[C@H](CO)Nc1nc(NCc2ccccc2)c2ncn(C(C)C)c2n1 [MMV003820]  -13.4%
42. CCCCc1ccc(S(=O)(=O)Nc2cc(C)on2)cc1 [MMV1782108]  -13.7%
43. CSC[C@H]1CN(Cc2c[nH]c3c(N)ncnc23)C[C@@H]1O [MMV1578565]  -14.4%
44. C[C@H](c1cccc2ccccc12)N(C)Cc1ccccc1 [MMV1782221]  -14.5%
45. N#C/C(=C1/SC[C@@H](c2ccc(Cl)cc2Cl)S1)n1ccnc1 [MMV1782224]  -14.5%
46. O=C(Nc1ncc(Cc2cccc3ccccc23)s1)C1CCCCC1 [MMV1593532]  -14.7%
47. CNCC(=O)OCc1cccnc1N(C)C(=O)OC(C)[n+]1cnn(C[C@](O)(c2cc(F)ccc2F)[C@@H](C)c2nc(-c3ccc(C#N)cc3)cs2)c1 (stereo partly drawn) [MMV1634494]  -14.8%
48. O=C(/C(=C/c1ccc(Cl)cc1Cl)n1ccnc1)c1ccc(Cl)cc1 [MMV1634491]  -15.1%
49. Oc1ccc2[nH]c(-c3ccccc3)nc2c1 [MMV292173]  -15.4%
50. COCCn1cnc2c(O)nc(Nc3ccccc3)nc21 [MMV1782103]  -15.7%
51. CC(C)(C)c1cccc(-c2nc3cc(C(=N)N)ccc3[nH]2)c1O [MMV1581548]  -15.8%
52. CCCCc1ccc(C(=O)O)nc1 [MMV001726]  -15.9%
53. OCCC#Cc1nc(-c2ccc(F)cc2)c(-c2ccncc2)n1CCCc1ccccc1 [MMV1580797]  -16.9%
54. Cc1cc(Nc2ccc(F)cc2)nc(SCc2nc3ccccc3[nH]2)n1 [MMV1582498]  -17.0%
55. COc1ccc(NC(=O)c2cc3ccccn3n2)cc1 [MMV374187]  -18.8%
56. CC1CCc2c(N3CCC(O)CC3)c(F)cc3c(=O)c(C(=O)O)cn1c23 (stereo not drawn) [MMV637659]  -19.1%
57. Cc1cc(C)n2nc(C(=O)NS(=O)(=O)c3c(C)cccc3OC(F)(F)F)nc2n1 [MMV1782402]  -19.8%
58. CCNC(=O)Nc1cc(-c2ccccc2)c(-c2cncc(C(=O)O)c2)cn1 [MMV1593534]  -20.0%
59. Cc1cc(C)n(O)c(=O)c1 [MMV1782389]  -20.7%
60. CCc1c(O)nc2ccc(F)cc2c1OCC1CCC1 [MMV1634395]  -20.7%
61. COc1ccc2c(c1)cc(CNC(=O)c1cc3ccccc3o1)n2CC(=O)O [MMV1581553]  -20.7%
62. CN(C)CCNC(=O)c1cccc2cccnc12 [MMV811071]  -21.7%
63. CCCCCCCc1[nH]c2ccccc2c(=O)c1O [MMV1578561]  -24.4%
64. FC(F)(F)c1cc(C(F)(F)F)c2ccc3nc(-c4nnco4)cn3c2n1 [MMV690555]  -25.6%
65. O=C(CCCC(F)(F)F)N1CCC(c2nc(-c3nccs3)no2)CC1 [MMV1582491]  -26.7%
66. O=C(O)C[C@H]1CC[C@H](c2ccc(-c3ccc(Nc4ccc(C(F)(F)F)nc4)cn3)cc2)CC1 [MMV1580498]  -26.7%
67. CCC(C)n1ncn(-c2ccc(N3CCN(c4ccc(OCC5COC(Cn6cncn6)(c6ccc(Cl)cc6Cl)O5)cc4)CC3)cc2)c1=O (stereo not drawn) [MMV637528]  -26.8%
68. CCOC(=O)Nc1cc(NC(C)CC(C)CN(CC)CC)c2nc(-c3ccccc3)c(-c3ccccc3)nc2n1 (stereo not drawn) [MMV1633967]  -28.6%
69. Cc1c(CN(C)C(=O)/C=C/c2cnc3c(c2)C(C)(C)C(=O)N3)oc2ccccc12 [MMV1579788]  -28.8%
70. CC(=O)Nc1cc(NS(=O)(=O)c2ccc(Cl)cc2)cc2c(Cl)n[nH]c12 [MMV1579779]  -33.3%
71. CONC(=N)c1ccc(-c2ccc(-c3ccc(C(=N)NOC)cc3)o2)cc1 [MMV000059]  -38.5%
72. CN(C)[C@@H]1C(=O)C(C(N)=O)=C(O)[C@@]2(O)C(=O)C3=C(O)c4c(O)c(NC(=O)CN5CCCC5)cc(F)c4C[C@H]3C[C@@H]12.Cl.Cl [MMV1578574]  -44.3%
